The results in this text go back to ChEMBL document CHEMBL1131397, “Synthesis and immunosuppressive activity of ruthenium complexes” (Bioorg Med Chem Lett, 1998).

The species entered for this experiment is Homo sapiens. As to the kind of experiment: Immunosuppressive activity was evaluated by the inhibition of human T-lymphocyte proliferation. The class given is functional.

`CO[C@H]1C[C@@H]2CC[C@@H](C)[C@@](O)(O2)C(=O)C(=O)N2CCCC[C@H]2C(=O)O[C@H]([C@H](C)C[C@@H]2CC[C@@H](O)[C@H](OC)C2)CC(=O)[C@H](C)/C=C(\C)[C@@H](O)[C@@H](OC)C(=O)[C@H](C)C[C@H](C)/C=C/C=C/C=C/1C` [SIROLIMUS]: the midpoint of inhibition (Homo sapiens), the IC50, lay at 0.5 nM.
For the compound [Ru(imidazolidine)6](CF3SO3)2, the IC50 (usually the concentration that gives 50% inhibition) stood at 4 nM.
Same read-out and setting: then [Ru(imidazolidine)6]Cl2, with 5 nM.
